The values that follow come from patent US12662483B2, “Cocrystalline forms of FGFR3 inhibitors” (Eli Lilly and Company, priority 2022, dated 2026).

SMILES strings stand for the structures. ≈ marks a conversion by molar mass, not a printed value. Where only a bound is given, the exact number is not on record here.

A short description of series [1]: Solubility in aqueous and biorelevant media (HPLC of supernatant). The following applies: for solubility at 24 h: thermodynamic from solid.
Excerpt: Samples of Isomer 2 IPMC SDD, Isomer 2 HPMC-AS-M SDD, Isomer 2 PVP-VA SDD, and the cocrystalline form of Formula I or Formula II were centrifuged.
Series [2] can be described thus: Solid state stability at 40° C./75% RH, caps off. The series is classed as physicochemical. The following applies: 40° C. and 75% relative humidity.
Series [3] is described as follows: Dynamic vapor sorption (DVS). To be noted: 25° C. It is filed as physicochemical. As for the experimental part: Dynamic vapor sorption (DVS) analysis is obtained at 25° C. using a TA Instruments Q5000SA VTI flow moisture balance running TA Thermal Advantage, v5.2.6 and Universal Analysis 2000, v4.5a Software. The equilibrium criterion was <0.01% weight change in 5 minutes for a maximum of 60 minutes. Humidity verification calibration was performed with sodium bromide. The weight calibration was performed with manufacturer-supplied standards.
A prepared sample of the cocrystalline form of Formula I is characterized by dynamic vapor sorption as having a range of water content from about 1% at 0% RH to about 3.2% at 90% RH.

Another series deals with T1, FGFR3 protein (Homo sapiens, UniProt P22607).
T1 construct: purchased Reaction Biology 1068
T1 sequence (P22607 23-806): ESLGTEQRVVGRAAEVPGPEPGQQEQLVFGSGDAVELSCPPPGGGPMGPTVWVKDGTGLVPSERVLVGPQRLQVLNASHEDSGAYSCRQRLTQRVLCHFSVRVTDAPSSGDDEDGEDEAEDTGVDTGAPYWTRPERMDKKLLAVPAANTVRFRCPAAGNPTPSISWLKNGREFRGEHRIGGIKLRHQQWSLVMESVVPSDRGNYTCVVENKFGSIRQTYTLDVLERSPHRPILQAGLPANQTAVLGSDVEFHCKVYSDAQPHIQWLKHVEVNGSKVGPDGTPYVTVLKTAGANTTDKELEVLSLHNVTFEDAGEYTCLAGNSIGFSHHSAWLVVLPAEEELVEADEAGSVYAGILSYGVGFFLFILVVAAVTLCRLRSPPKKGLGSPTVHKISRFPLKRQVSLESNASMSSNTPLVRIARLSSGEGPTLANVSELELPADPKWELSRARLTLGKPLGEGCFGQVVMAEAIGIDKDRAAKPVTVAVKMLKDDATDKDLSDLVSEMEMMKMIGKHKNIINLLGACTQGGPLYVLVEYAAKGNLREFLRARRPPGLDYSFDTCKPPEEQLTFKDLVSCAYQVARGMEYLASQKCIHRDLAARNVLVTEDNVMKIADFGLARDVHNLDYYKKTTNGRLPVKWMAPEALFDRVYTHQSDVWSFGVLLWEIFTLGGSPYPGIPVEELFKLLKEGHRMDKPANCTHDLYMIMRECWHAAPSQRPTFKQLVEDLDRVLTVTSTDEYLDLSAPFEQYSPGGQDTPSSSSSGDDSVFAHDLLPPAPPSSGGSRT
Kind of series: FGFR3 enzyme assay (KinEASE-TK HTRF). It is filed as biochemical. The following applies: at Km ATP, 0.25 nM enzyme. As for the experimental part:
Enzyme activity was monitored using the KinEASE™-TK Assay Kit (CisBio, Cat. No. 62TK0PEC) according to the manufacturer's instructions. All assays were performed at the respective KmATP for each kinase in KinEASE™ Kinase Buffer.
Titration of Isomers 1, 2, and A were performed in a half-log manner in 100% dimethyl sulfoxide (DMSO) starting at 1 uM. Prior to the initiation of the reaction by adenosine triphosphate (ATP), FGFR1 protein and Isomers 1, 2, and A were pre-incubated for 15 minutes at room temperature, and FGFR3 protein and Isomers 1, 2, and A were pre-incubated on ice for 15 minutes. Reactions proceeded for 30 min at 30° C. Plates were quenched by the addition of the Anti-TK cryptate antibody/Streptavidin-XL665 mixture.
Ratios were converted to a percent of control (POC) using a ratiometric emission factor. One hundred POC was determined using no test compound, and 0 POC was determined in the presence of 1 uM of an appropriate control inhibitor. A 4-parameter logistic curve was fit to the POC values as a function of the concentration of Isomers 1, 2, and A, and the IC50 value was the point where the best fit curve crossed 50 POC.
In general terms: Time-resolved FRET reads energy transfer from a long-lived donor to a nearby acceptor.

[4] abbreviates: fasted simulated intestinal fluid.

`Cc1c(-c2cc(O[C@H](CO)c3ccc(F)cn3)c3c(Cl)cnn3c2)nnn1C1CCN(C#N)CC1` (single isomer, unassigned; isomer 2) [cocrystalline form of Formula I, 4-[4-[3-Chloro-4-[1-(5-fluoro-2-pyridyl)-2-hydroxy-ethoxy]pyrazolo[1,5-a]pyridin-6-yl]-5-methyl-triazol-1-yl]piperidine-1-carbonitrile, Isomer 2, Hemi-Gallic Acid Cocrystalline Form, Hemihydrate]: in series [1] (setting [4]), the “solubility relative to Isomer 2 with IPMC SDD” value was “about two to about three times more soluble” and the “solubility relative to freebase form of Isomer 2” value is on record as “about four to about five times more soluble”. Besides, in series [2], the “stability relative to SDD formulations of Isomer 2 (IPMC, HPMC-AS-M, PVP-VA)” value is on record as “more stable”. Further, the “water content by dynamic vapor sorption” value in series [3] (0% RH) is recorded as “about 1%”. Besides, the “water content by dynamic vapor sorption” value in series [3] (90% RH) is on record as “about 3.2%”.

Broadly, the solubility is how much of the substance goes into solution per volume. Low readings indicate little dissolved substance, high ones much dissolved substance. For `Cc1c(-c2cc(O[C@H](CO)c3ccc(F)cn3)c3c(Cl)cnn3c2)nnn1C1CCN(C#N)CC1` [Isomer 2, 4-[4-[3-chloro-4-[1-(5-fluoro-2-pyridyl)-2-hydroxy-ethoxy]pyrazolo[1,5-a]pyridin-6-yl]-5-methyl-triazol-1-yl]piperidine-1-carbonitrile, Isomer 2], the solubility at 24 h in series [1] (0.01N aqueous HCl, simulated gastric fluid) was 7 µg/mL (≈ 14.1 µM); in series [1] (0.1N aqueous HCl, simulated gastric fluid), 12 µg/mL (≈ 24.1 µM); in series [1] (acetate buffer USP, pH 4.5, aqueous buffer) it was 6 µg/mL (≈ 12.1 µM); in series [1] (phosphate buffer USP, pH 6, aqueous buffer), 6 µg/mL (≈ 12.1 µM); in series [1] (phosphate buffer USP, pH 7.5, aqueous buffer), 5 µg/mL (≈ 10.1 µM); in series [1] (simulated gastric fluid), 47 µg/mL (≈ 94.6 µM). In addition, the solubility at 24 h was 10 µg/mL (≈ 20.1 µM) in series [1] (simulated intestinal fluid (fasted), fassif); 38 µg/mL (≈ 76.5 µM) in series [1] (simulated intestinal fluid (fed), fessif); 6 µg/mL (≈ 12.1 µM) in series [1] (water).

For orientation: IC50 means the concentration at which inhibition is half-maximal. Read a high IC50 as weaker potency. At FGFR3 protein, `Cc1c(-c2cc(O[C@H](CO)c3ccccn3)c3c(Cl)cnn3c2)nnn1C1CCN(C#N)CC1` [Isomer A, 4-[4-[3-chloro-4-[2-hydroxy-1-(2-pyridyl)ethoxy]pyrazolo[1,5-a]pyridin-6-yl]-5-methyl-triazol-1-yl]piperidine-1-carbonitrile, Isomer 1] displayed an IC50 below 50 nM.
